We go through 7 compounds from US9809552B2, “Piperazine derivatives as FASN inhibitors” (Merck Patent GmbH, priority 2013, dated 2017).

The structures appear in SMILES notation.

The target of this experiment is T1, human recombinant full-length fatty acid synthase (FASN) (Homo sapiens, UniProt P49327).
T1 construct: human recombinant full-length fatty acid synthase (produced in-house in SF9 cells); made in house; host or cells: SF9 insect cells
T1 sequence (P49327 whole entry): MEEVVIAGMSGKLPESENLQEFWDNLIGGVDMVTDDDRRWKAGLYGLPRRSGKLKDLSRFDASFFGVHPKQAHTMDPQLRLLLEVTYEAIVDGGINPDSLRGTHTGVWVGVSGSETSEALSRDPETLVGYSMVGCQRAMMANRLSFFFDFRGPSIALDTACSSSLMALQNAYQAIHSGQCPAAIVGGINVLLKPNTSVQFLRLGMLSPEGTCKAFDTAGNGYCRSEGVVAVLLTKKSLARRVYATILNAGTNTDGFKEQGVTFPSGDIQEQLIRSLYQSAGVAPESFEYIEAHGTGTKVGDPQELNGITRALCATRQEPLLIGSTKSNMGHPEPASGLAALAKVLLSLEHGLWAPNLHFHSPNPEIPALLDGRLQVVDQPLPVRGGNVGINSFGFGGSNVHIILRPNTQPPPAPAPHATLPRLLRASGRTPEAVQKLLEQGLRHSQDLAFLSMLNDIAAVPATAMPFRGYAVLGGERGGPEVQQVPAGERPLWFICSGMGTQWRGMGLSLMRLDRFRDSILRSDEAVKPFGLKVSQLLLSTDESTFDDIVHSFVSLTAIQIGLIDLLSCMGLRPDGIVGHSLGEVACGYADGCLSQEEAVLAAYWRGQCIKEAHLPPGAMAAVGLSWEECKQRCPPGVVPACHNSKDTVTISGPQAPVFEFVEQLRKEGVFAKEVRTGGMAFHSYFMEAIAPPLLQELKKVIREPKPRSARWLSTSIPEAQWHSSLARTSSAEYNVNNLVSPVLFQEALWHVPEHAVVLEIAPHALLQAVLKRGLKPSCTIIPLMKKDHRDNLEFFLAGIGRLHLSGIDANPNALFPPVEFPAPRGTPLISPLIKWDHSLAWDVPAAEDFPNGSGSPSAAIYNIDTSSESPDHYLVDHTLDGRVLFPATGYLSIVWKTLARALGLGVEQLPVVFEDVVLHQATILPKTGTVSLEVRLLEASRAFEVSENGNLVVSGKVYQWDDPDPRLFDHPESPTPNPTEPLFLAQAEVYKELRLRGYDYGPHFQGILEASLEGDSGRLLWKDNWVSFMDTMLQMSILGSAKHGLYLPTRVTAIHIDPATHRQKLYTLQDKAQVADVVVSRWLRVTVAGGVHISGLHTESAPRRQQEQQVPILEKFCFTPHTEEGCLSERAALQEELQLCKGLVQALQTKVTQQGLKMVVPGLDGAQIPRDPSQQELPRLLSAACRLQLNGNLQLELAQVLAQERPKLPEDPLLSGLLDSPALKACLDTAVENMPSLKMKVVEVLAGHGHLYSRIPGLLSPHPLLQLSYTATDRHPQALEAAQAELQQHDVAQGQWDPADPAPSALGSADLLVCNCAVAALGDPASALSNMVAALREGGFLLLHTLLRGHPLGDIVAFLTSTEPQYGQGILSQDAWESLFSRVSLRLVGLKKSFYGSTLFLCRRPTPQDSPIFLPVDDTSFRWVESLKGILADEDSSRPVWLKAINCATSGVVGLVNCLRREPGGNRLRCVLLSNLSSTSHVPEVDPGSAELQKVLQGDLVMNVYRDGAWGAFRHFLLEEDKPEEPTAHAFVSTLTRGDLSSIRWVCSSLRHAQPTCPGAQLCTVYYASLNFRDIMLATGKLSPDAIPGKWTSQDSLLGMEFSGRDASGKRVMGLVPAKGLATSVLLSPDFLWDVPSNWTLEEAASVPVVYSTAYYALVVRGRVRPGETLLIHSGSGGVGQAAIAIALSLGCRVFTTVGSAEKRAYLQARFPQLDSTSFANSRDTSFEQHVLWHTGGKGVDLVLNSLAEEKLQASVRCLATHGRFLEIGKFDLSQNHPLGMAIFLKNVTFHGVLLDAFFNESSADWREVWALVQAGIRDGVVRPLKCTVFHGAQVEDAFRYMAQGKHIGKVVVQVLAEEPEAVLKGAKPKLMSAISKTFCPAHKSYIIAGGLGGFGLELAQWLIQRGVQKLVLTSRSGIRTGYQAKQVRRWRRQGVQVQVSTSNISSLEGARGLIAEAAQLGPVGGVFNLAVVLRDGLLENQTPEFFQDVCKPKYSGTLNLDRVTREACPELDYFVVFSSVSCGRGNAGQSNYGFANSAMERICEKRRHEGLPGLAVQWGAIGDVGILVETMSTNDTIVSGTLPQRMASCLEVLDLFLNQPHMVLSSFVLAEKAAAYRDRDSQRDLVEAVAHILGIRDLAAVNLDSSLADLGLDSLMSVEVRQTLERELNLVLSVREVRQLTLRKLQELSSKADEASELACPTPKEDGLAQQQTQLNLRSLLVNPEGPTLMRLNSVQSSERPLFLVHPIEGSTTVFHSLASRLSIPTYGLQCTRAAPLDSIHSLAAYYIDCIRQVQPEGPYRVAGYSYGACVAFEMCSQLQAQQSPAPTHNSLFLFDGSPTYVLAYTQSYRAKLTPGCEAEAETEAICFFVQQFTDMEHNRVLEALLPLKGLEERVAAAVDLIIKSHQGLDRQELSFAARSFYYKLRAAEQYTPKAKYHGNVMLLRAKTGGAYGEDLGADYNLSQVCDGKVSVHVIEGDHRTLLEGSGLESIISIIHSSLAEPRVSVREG
Briefly: Biochemical activity testing of human fatty acid synthase FASN (NADPH fluorescence intensity enzyme assay). The note with it: 15 min pre-incubation, 30 min reaction at room temperature. The source says:
Biochemical activity testing of human fatty acid synthase FASN
Fatty acid synthase FASN is a multifunctional enzyme with seven catalytic activities thereby synthesising long chain fatty acids especially palmitoyl-CoA in the presence of co-factor NADPH starting from the substrates acetyl-CoA and malonyl-CoA. The reductive synthesis is realized by the oxidation of NADPH to NADP. Since NADPH has a high fluorescence intensity quantum yield compared to NADP with excitation at 340 nm and emission at 460 nm, the reaction can be monitored via the decrease in fluorescence intensity. The biochemical FASN activity testing was performed as 384 well two-time-point kinetic fluorescence intensity assay format in Greiner low volume medium binding 384-well black microtiter plates in a total assay volume of 8 μl and was used for high throughput screen. In each well 3 μl 40 nM human recombinant full-length fatty acid synthase (produced in-house in SF9 cells) were dispensed in the following assay buffer: 50 mM potassium phosphate buffer pH 7.0, 0.005% (w/v) BSA, 2 mM Glutathione, 0.02% Tween-20. Then 2 μl of 200 μM NADPH in assay buffer were added, followed by the addition of the test compounds in 10 dilution concentrations starting with 30 μM (final concentration) to get a final DMSO content of 1% (v/v). The mixture was incubated for at least 15 min at room temperature. After the pre-incubation the enzymatic reaction was started by the addition of 2 μl substrate solution (80 μM acetyl-CoA, 240 μM malonyl-CoA). A first fluorescence intensity measurement (time point one) was performed with an Envision multimode reader (Perkin Elmer LAS Germany GmbH) at excitation wavelength 340 nm (lamp mode) and emission wavelength 460 nm. The reaction was incubated for 30 minutes at room temperature. After this the fluorescence intensity was measured again in the Envision using the same parameters as described above (second time point measurement). The data were analysed by subtracting the first time point measurement value from the second time point measurement value (after the enzymatic reaction). The differences of the emission signals were determined. These reflect directly the conversion rate of NADPH. The full value used was the inhibitor-free reaction. A pharmacological zero value was used like GSK837149A (Sigma-Aldrich) in a final concentration of 5-10 μM. The inhibitory values (IC50) were determined using either the program Symyx Assay Explorer® or Condosseo® from GeneData.
For orientation: IC50 means the concentration that inhibits the measured activity by half. For the compound `CCC(=O)N1CCN(C(=O)c2ccc(-c3ccc4cnccc4c3)cc2)CC1` [Compound A1, 1-[4-(4-isoquinolin-6-yl-benzoyl)-piperazin-1-yl]-propan-1-one], the IC50 is less than 300 nM.

In the case of `CC(=O)N1CCN(C(=O)c2ccc(-c3ccc4cnccc4c3)cc2)CC1` [Compound A2, 1-[4-(4-isoquinolin-6-yl-benzoyl)-piperazin-1-yl]ethanone], the IC50 fell in the range of 300 to 3000 nM.

For the compound `O=C(c1ccc(-c2ccc3cnccc3c2)cc1)N1CCN(C(=O)C2CC2)CC1` [Compound A3, (4-cyclopropanecarbonyl-piperazin-1-yl)-(4-isoquinolin-6-yl-phenyl)-methanone], the IC50 was less than 300 nM.

Take `CCCC(=O)N1CCN(C(=O)c2ccc(-c3ccc4cnc(OC)cc4c3)cc2)CC1` [Compound A4, 1-{4-[4-(3-methoxy-isoquinolin-6-yl)-benzoyl]-piperazin-1-yl}-butan-1-one]: the 50% inhibitory concentration (IC50) fell in the range of 300 to 3000 nM.

As for `CCCCC(=O)N1CCN(C(=O)c2ccc(-c3ccc4cnccc4c3)cc2)CC1` [Compound A5, 1-[4-(4-isoquinolin-6-yl-benzoyl)-piperazin-1-yl]-pentan-1-one], the IC50 is less than 300 nM.

Regarding `CCCC(=O)N1CCN(C(=O)c2ccc(-c3ccc4cnccc4c3)cc2)CC1` [Compound A6, 1-[4-(4-isoquinolin-6-yl-benzoyl)-piperazin-1-yl]-butan-1-one], the IC50 is less than 300 nM.

For `CCC(=O)N1CCN(C(=O)c2ccc(-c3ccc4c[n+]([O-])ccc4c3)cc2)CC1` [Compound A7, 1-{4-[4-(2-oxy-isoquinolin-6-yl)-benzoyl]-piperazin-1-yl}-propan-1-one], the IC50 is less than 300 nM.
